Measurements reported in BindingDB's records for doi:10.1021/jm960395q (Shionogi, 1996).

What was measured:
[1] = target: T1, Phospholipase A2 (Homo sapiens, UniProt P04054); experiment: Inhibition of recombinant human secretory Phospholipase A2 (s-PLA2)
[2] = Inhibitory activity against recombinant human secretory Phospholipase A2 (s-PLA2) by phosphatidylcholine/deoxycholate assay(PC/DOC).
[3] = Inhibitory activity against recombinant human secretory phospholipase A2 (s-PLA2) by phosphatidylcholine/deoxycholate assay (PC/DOC).
[4] = target: T1, Phospholipase A2; experiment: Inhibition of recombinant human secretory phospholipase A2 (sPLA2), chromogenic screening assay.

T1 sequence (P04054 whole entry): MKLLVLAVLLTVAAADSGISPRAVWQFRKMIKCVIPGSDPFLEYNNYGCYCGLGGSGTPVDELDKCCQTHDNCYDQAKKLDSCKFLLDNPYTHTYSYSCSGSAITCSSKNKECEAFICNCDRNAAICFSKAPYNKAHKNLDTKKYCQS

SMILES	IC50 [1] [nM]	IC50 [2] [nM]	IC50 [3] [nM]	IC50 [4] [nM]
CCc1c(C(=O)C(N)=O)c2c(OCn3ncnn3)cccn2c1Cc1cccc(Cl)c1 [2-[3-(3-Chloro-benzyl)-2-ethyl-8-(4H-tetrazol-2-ylmethoxy)-indolizin-1-yl]-2-oxo-acetamide]	30	45000	–	–
CCc1c(C(=O)C(N)=O)c2c(OCc3ccc4ccccc4n3)cccn2c1Cc1ccccc1-c1ccccc1 [2-[3-Biphenyl-2-ylmethyl-2-ethyl-8-(quinolin-2-ylmethoxy)-indolizin-1-yl]-2-oxo-acetamide]	55	–	–	–
CCc1c(C(=O)C(N)=O)c2c(OCC(=O)O)cccn2c1CC1CCCCCC1 [(1-Aminooxalyl-3-cycloheptylmethyl-2-ethyl-indolizin-8-yloxy)-acetic acid]	–	–	100	23
CCc1c(C(=O)C(N)=O)c2c(OCC(=O)O)cccn2c1Cc1cccc2ccccc12 [(1-Aminooxalyl-2-ethyl-3-naphthalen-1-ylmethyl-indolizin-8-yloxy)-acetic acid]	–	–	24	5
COC(=O)COc1cccn2c(Cc3ccccc3-c3ccccc3)c(C)c(C(=O)C(N)=O)c12 [(1-Aminooxalyl-3-biphenyl-2-ylmethyl-2-methyl-indolizin-8-yloxy)-acetic acid methyl ester]	–	–	1.4	8
CCc1c(C(=O)C(N)=O)c2c(OCC(=O)O)cccn2c1Cc1cccc(OC)c1 [[1-Aminooxalyl-2-ethyl-3-(3-methoxy-benzyl)-indolizin-8-yloxy]-acetic acid]	–	–	30	21
CCc1c(C(=O)C(N)=O)c2c(OCC(=O)OC)cccn2c1Cc1cccc(-c2ccccc2)c1 [(1-Aminooxalyl-3-biphenyl-3-ylmethyl-2-ethyl-indolizin-8-yloxy)-acetic acid methyl ester]	–	–	4.2	9
COC(=O)CCCOC1=CC=CN2C1=C(CC(N)=O)C(C)C2Cc1ccccc1 (configuration not stated) [4-(3-Benzyl-1-carbamoylmethyl-2-methyl-2,3-dihydro-indolizin-8-yloxy)-butyric acid methyl ester]	15000	–	–	–
CCc1c(CC(N)=O)c2c(OCC(=O)O)cccn2c1Cc1ccccc1 [(3-Benzyl-1-carbamoylmethyl-2-ethyl-indolizin-8-yloxy)-acetic acid]	–	–	28	13
CCCCC[C@H]1CCCC(Cc2c(CC)c(C(=O)C(N)=O)c3c(OCC(=O)O)cccn23)C1 (stereo partly drawn) [[1-Aminooxalyl-2-ethyl-3-((S)-3-pentyl-cyclohexylmethyl)-indolizin-8-yloxy]-acetic acid]	–	–	20	25

Now from value to compound:

IC50 [1] [nM]	IC50 [2] [nM]	IC50 [3] [nM]	IC50 [4] [nM]	SMILES
400	–	–	–	CCC1C(C(N)=O)=C2C(OCC(=O)O)=CC=CN2/C1=C\c1ccccc1Cc1ccccc1 (configuration not stated) [{3-[1-(2-Benzyl-phenyl)-meth-(Z)-ylidene]-1-carbamoyl-2-ethyl-2,3-dihydro-indolizin-8-yloxy}-acetic acid]
910	–	–	–	CC1C(CC(N)=O)=C2C(OCCCC(=O)O)=CC=CN2/C1=C\c1ccccc1 (configuration not stated) [4-{1-Carbamoylmethyl-2-methyl-3-[1-phenyl-meth-(Z)-ylidene]-2,3-dihydro-indolizin-8-yloxy}-butyric acid]
12000	–	–	–	CC1C(CC(N)=O)=C2C(OCC(=O)O)=CC=CN2C1Cc1ccccc1 (configuration not stated) [(3-Benzyl-1-carbamoylmethyl-2-methyl-2,3-dihydro-indolizin-8-yloxy)-acetic acid]
67	–	–	–	CCC1C(CC(N)=O)=C2C(OCC(=O)O)=CC=CN2/C1=C\c1cccc(Cl)c1Cl (configuration not stated) [{1-Carbamoylmethyl-3-[1-(2,3-dichloro-phenyl)-meth-(Z)-ylidene]-2-ethyl-2,3-dihydro-indolizin-8-yloxy}-acetic acid]
170	–	–	–	CCC1C(CC(N)=O)=C2C(OCC(=O)O)=CC=CN2/C1=C\c1ccc2ccccc2c1 (configuration not stated) [{1-Carbamoylmethyl-2-ethyl-3-[1-naphthalen-2-yl-meth-(Z)-ylidene]-2,3-dihydro-indolizin-8-yloxy}-acetic acid]
240	–	–	–	CCC1C(CC(N)=O)=C2C(OCC(=O)O)=CC=CN2/C1=C\c1cccc(C(F)(F)F)c1 (configuration not stated) [{1-Carbamoylmethyl-2-ethyl-3-[1-(3-trifluoromethyl-phenyl)-meth-(Z)-ylidene]-2,3-dihydro-indolizin-8-yloxy}-acetic acid]
100	420000	–	–	CCC1C(CC(N)=O)=C2C(OCC(=O)O)=CC=CN2/C1=C\c1ccccc1-c1ccccc1 (configuration not stated) [{3-[1-Biphenyl-2-yl-meth-(Z)-ylidene]-1-carbamoylmethyl-2-ethyl-2,3-dihydro-indolizin-8-yloxy}-acetic acid]
–	–	26	13	NC(=O)Cc1c(C2CC2)c(Cc2ccccc2-c2ccccc2)n2cccc(OCC(=O)O)c12 [(3-Biphenyl-2-ylmethyl-1-carbamoylmethyl-2-cyclopropyl-indolizin-8-yloxy)-acetic acid]
25	130000	–	–	CCC1C(CC(N)=O)=C2C(OCC(=O)O)=CC=CN2/C1=C\c1cccc2ccccc12 (configuration not stated) [{1-Carbamoylmethyl-2-ethyl-3-[1-naphthalen-1-yl-meth-(Z)-ylidene]-2,3-dihydro-indolizin-8-yloxy}-acetic acid]
200	–	–	–	CCC1C(CC(N)=O)=C2C(OCC(=O)O)=CC=CN2/C1=C\c1cccc(Cl)c1 (configuration not stated) [{1-Carbamoylmethyl-3-[1-(3-chloro-phenyl)-meth-(Z)-ylidene]-2-ethyl-2,3-dihydro-indolizin-8-yloxy}-acetic acid]
–	–	6	9	NC(=O)C(=O)c1c(C2CC2)c(Cc2ccccc2-c2ccccc2)n2cccc(OCC(=O)O)c12 [(1-Aminooxalyl-3-biphenyl-2-ylmethyl-2-cyclopropyl-indolizin-8-yloxy)-acetic acid]
160	–	–	–	CCC1C(CC(N)=O)=C2C(OCC(=O)O)=CC=CN2/C1=C\c1ccccc1 (configuration not stated) [{1-Carbamoylmethyl-2-ethyl-3-[1-phenyl-meth-(Z)-ylidene]-2,3-dihydro-indolizin-8-yloxy}-acetic acid]
–	–	130	44	CCc1c(C(=O)C(N)=O)c2c(OCCC(=O)O)cccn2c1Cc1ccccc1-c1ccccc1 [3-(1-Aminooxalyl-3-biphenyl-2-ylmethyl-2-ethyl-indolizin-8-yloxy)-propionic acid]
420	–	–	–	CC1C(C(N)=O)=C2C(OCC(=O)O)=CC=CN2/C1=C\c1ccccc1 (configuration not stated) [{1-Carbamoyl-2-methyl-3-[1-phenyl-meth-(Z)-ylidene]-2,3-dihydro-indolizin-8-yloxy}-acetic acid]
